Source: patent US9066914B2, “Prophylactic or ameliorating agent for pigmentation” (POLA CHEMICAL INDUSTRIES INC., priority 2010, dated 2015)

Test system: normal human melanocyte
Assay: UVB-induced cell activation inhibition test using normal human melanocyte
Assay type: cell-based
Conditions: formazan (MTT) production ratio, UVB-irradiated DMSO negative control = 100%; UVB 5 mJ/cm^2; 100 mM in DMSO diluted 1,000 times; conditioned medium of normal human keratinocyte; mean of 3 samples
Description: The inhibitory effect of the compounds on the activation of melanocyte by activating factor produced and released from normal human keratinocyte by the ultraviolet B (UVB) was evaluated by using the index of the cell proliferation of normal human melanocyte.
Normal human keratinocyte (Kurabo Industries, Ltd.) were seeded by Humedia-KG2 medium (Kurabo Industries, Ltd.) at a concentration of 10×10^4 cells/well in 24-well plate. Then, cells were cultured for 24 hours.
The compound was dissolved at a concentration of 100 mM in DMSO, which was diluted 1,000 times with Humedia-KG2 medium and used as a sample solution. As for the positive control group, tranexamic acid was dissolved at a concentration of 100 mM in DMSO, which was diluted 1,000 times with Humedia-KG2 medium as a positive control sample solution. As for the negative control group, DMSO was diluted 1,000 times with Humedia-KG2 medium as a negative control sample solution.
The medium of normal human keratinocyte was exchanged with Humedia-KG2 medium (sample solution) containing the compound at a predetermined concentration and cells were cultured for further 24 hours. After that, the medium was exchanged with PBS (phosphate buffered saline), and cells were irradiated with the ultraviolet B (UVB) at 5 mJ/cm^2 by using an ultraviolet lamp (FL20S•E-30/DMR, Toshiba Medical Supply Co., Ltd.) as a light source. After the ultraviolet radiation, PBS was exchanged with the sample solution. Cells were cultured for further 24 hours, and then the conditioned medium was collected. Normal human melanocyte cells were seeded at the concentration of 3×10^4 cells/well in 96-well plate by a medium of Medium 254 (Kurabo Industries, Ltd.). Cells were cultured for 24 hours. After that, the medium was exchanged with the conditioned medium collected from normal human keratinocyte, and cells were cultured for further 24 hours. After 24 hours, the medium was exchanged with Humedia-KG2 medium containing 0.5 mg/mL of 3-(4,5-dimethyl-2-thiazoyl)-2,5-diphenyl-2H-tetrazolium bromide (MTT), and cultured for 3 hour.
The formazan amount was measured by the absorbances at 570 nm and 690 nm of cell lysate lysed with 2-propanol using a microplate reader (Benchmark Plus, Bio-Rad) by subtracting the absorbance at 690 nm from the absorbance at 570 nm.
The inhibitory effect of each compounds on melanocyte proliferation was calculated as the formazan production ratio (%) when the absorbance of negative control group, which was added DMSO and UVB irradiated, was defined as 100%.
Therefore, the small production ratio of formazan means that the inhibitory effect of the compounds is strong against the activation of melanocyte by the melanocyte activating factor released form keratinocyte.

Compared with `COc1ccc(C(=O)N[C@@H](CS(=O)(=O)O)C(=O)O)cc1` [L-Isomer of Compound 4, N-(p-methoxybenzoyl)cysteic acid], `Cc1ccc(C(=O)N[C@@H](CS(=O)(=O)O)C(=O)O)cc1` [L-Isomer of Compound 3, N-(p-toluoyl)cysteic acid] is lower in “Melanocyte proliferation ratio Average (%)” value: 65.6% for the first, 58.4% for the second.

Compared with `NC[C@H]1CC[C@H](C(=O)O)CC1` [Tranexamic acid, reference compound], `Cc1ccccc1C(=O)N[C@@H](CS(=O)(=O)O)C(=O)O` [L-Isomer of Compound 1, N-(o-Toluoyl)-L-cysteic acid] is lower in “Melanocyte proliferation ratio Average (%)” value: 80.9% for the first, 73.7% for the second.

Going from `O=C(N[C@@H](CS(=O)(=O)O)C(=O)O)c1ccc(-c2ccccc2)cc1` [L-Isomer of Compound 5, N-(4-phenylbenzoyl)cysteic acid] to `Cc1cccc(C(=O)N[C@@H](CS(=O)(=O)O)C(=O)O)c1` [L-Isomer of Compound 2, N-(m-toluoyl)cysteic acid], the “Melanocyte proliferation ratio Average (%)” value falls from 79.0% to 77.0%.

With `Cc1ccc(C(=O)NC(CCS(=O)(=O)O)C(=O)O)cc1` (racemic) [Compound 6, N-(p-toluoyl)homocysteic acid] the “Melanocyte proliferation ratio Average (%)” value was 71.3%.

Test system: pigmented guinea pigs
Assay: Ultraviolet ray-induced pigmentation suppression test using guinea pigs
Assay type: in vivo, guinea pig
Conditions: 0.5% (w/v) in ethanol, 30 μL once a day for 6 weeks; L* on 43rd day minus L* before UV (300 mJ/cm^2); average ± standard deviation of 8 animals; solvent control −10.07 ± 0.78
Source text: The hair of the dorsal skin of each of eight pigmented guinea pigs was removed and shaved using an electrical hair clipper and shaver, and each of the sites was covered with a black cloth having a total of four (two on the top and bottom and two on the right and left) irradiation windows with a size of 2×2 cm, and then irradiated with ultraviolet rays of 300 mJ/cm^2 using FL20S•E30 lamp as a light source. The operation was repeated on days 1, 3, 5, and 8 after the start of the test to induce pigmentation on the four test sites. Compound 3 was dissolved in ethanol at a concentration of 0.5% (w/v) to prepare samples for application. Further, as a control, ethanol was used alone as a sample for application. On the 1st day of the test after the ultraviolet radiation, the application of samples was started. […] The skin brightness (L* value) of each of the test sites was measured by a colorimeter (CR-200, Konica Minolta Holdings, Inc.) before the ultraviolet radiation on the day of the start of application (day 1) and after 6 weeks (on the 43rd day of the test), and a ΔL* value was calculated by subtracting an L* value before the ultraviolet radiation from the L* value on 43rd day of the test. […] Therefore, it can be evaluated that, as the ΔL* value becomes larger (high numerical value), pigmentation is more inhibited.

`Cc1ccc(C(=O)NC(CS(=O)(=O)O)C(=O)O)cc1` [L-Isomer of Compound 3, N-(p-toluoyl)cysteic acid] was tested, and the “ΔL* value” was −8.88 ± 0.54.

Same assay, conditions: concentration of 0.5%, applied to the skin

With `Cc1ccc(C(=O)NC(CS(=O)(=O)O)C(=O)O)cc1` [L-Isomer of Compound 3, N-(p-toluoyl)cysteic acid] the “suppression of ultraviolet-induced pigmentation (in words)” value was “clearly suppresses the pigmentation”.
